Reference: the NIST ThermoML archive (doi:10.1021/je060416d)

Conditions: Liquid, Vibrating wire viscometry

C1CCCC1 [cyclopentane]
viscosity [mPa·s]
Conditions	273.15 K	293.15 K	298.15 K	313.15 K	333.15 K	353.15 K
100 kPa	0.5628	0.4413	0.4167	–	–	–
10000 kPa	0.6148	0.4827	0.4583	0.392	0.3247	–
15000 kPa	–	–	–	–	–	0.2868
30000 kPa	0.7203	0.5708	0.5409	0.4646	0.3882	0.3291
40000 kPa	0.7767	0.6167	0.5846	–	–	–
45000 kPa	–	–	–	0.5222	0.4364	0.3727
